Data as given in the supplement of paper PMC10307832.

What was measured:
Assay in all cases: relative viability (nuclei count vs DMSO), 5 days (fraction); higher = more cells survive
[1] = compound: Nc1nc(Nc2ccc3c(c2)CC[C@@H](N2CCCC2)CC3)nn1-c1cc2c(nn1)-c1ccccc1CCC2 [Bemcentinib] + O=C(CCCCCCC(=O)Nc1ccccc1)NO [Vorinostat] (partner 1 µM)
Method in brief: (§1)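 Relative viability equals treated-well nuclei counts divided by vehicle-well nuclei counts. Counts came from 4× images of lung cancer cell lines grown in 1536-well plates for 5 days after pin-tool dosing on the day after seeding. Dosing used one drug alone or a fixed anchor-drug dose plus five library-drug doses (not always all listed) in √10 steps, and values are medians of duplicate plates.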

[2] = compound: CNC(=O)c1ccccc1Sc1ccc2c(/C=C/c3ccccn3)n[nH]c2c1 [Axitinib] + O=C(CCCCCCC(=O)Nc1ccccc1)NO [Vorinostat] (partner 1 µM)
Method in brief: as §1

[3] = compound: Nc1nc(Nc2ccc3c(c2)CC[C@@H](N2CCCC2)CC3)nn1-c1cc2c(nn1)-c1ccccc1CCC2 [Bemcentinib] + CS(=O)(=O)N1CCN(Cc2cc3nc(-c4cccc5[nH]ncc45)nc(N4CCOCC4)c3s2)CC1 [Pictilisib] (partner 1 µM)
Method in brief: as §1

[4] = compound: CC1=CC=C(C=C1)C(=O)CN2C3=C(CCCC3)SC2=N [Pifithrin_alpha] + CCNC(=O)c1noc(-c2cc(C(C)C)c(O)cc2O)c1-c1ccc(CN2CCOCC2)cc1 [Luminespib] (partner 0.01 µM)
Method in brief: as §1

| Cell Line | relative viability ([1]; first compound 0.04 µM) | relative viability ([1]; first compound 0.1265 µM) | relative viability ([1]; first compound 0.4 µM) | relative viability ([1]; first compound 1.265 µM) | relative viability ([1]; first compound 4 µM) | relative viability ([2]; first compound 0.005 µM) | relative viability ([2]; first compound 0.01581 µM) | relative viability ([2]; first compound 0.05 µM) | relative viability ([2]; first compound 0.1581 µM) | relative viability ([2]; first compound 0.5 µM) | relative viability ([3]; first compound 0.04 µM) | relative viability ([3]; first compound 0.1265 µM) | relative viability ([3]; first compound 0.4 µM) | relative viability ([3]; first compound 1.265 µM) | relative viability ([3]; first compound 4 µM) | relative viability ([4]; first compound 1 µM) | relative viability ([4]; first compound 3.162 µM) | relative viability ([4]; first compound 10 µM) | relative viability ([4]; first compound 31.62 µM) | relative viability ([4]; first compound 100 µM) |
| --- | --- | --- | --- | --- | --- | --- | --- | --- | --- | --- | --- | --- | --- | --- | --- | --- | --- | --- | --- | --- |
| HCC-366 | 0.32 | 0.43 | 0.441 | 0.303 | 0.433 | 0.666 | 0.414 | 0.447 | 0.333 | 0.395 | 0.124 | 0.206 | 0.157 | 0.124 | 0.146 | – | – | – | – | – |
| HCC-827 | 0.79 | 0.858 | 0.783 | 0.361 | 0.789 | 0.809 | 0.505 | 0.863 | 0.746 | 0.925 | 1.11 | 0.943 | 1.05 | 0.877 | 1.07 | 0.747 | 0.741 | 0.803 | 0.439 | 0.863 |
| HOP-62 | 0.606 | 0.738 | 0.79 | 0.672 | 0.623 | 0.713 | 0.686 | 0.585 | 0.696 | 0.76 | 0.661 | 0.82 | – | 0.712 | 0.92 | 1.07 | 1.05 | 1.04 | 0.776 | 1.19 |
| IA-LM | 0.968 | 1.38 | 0.984 | 0.965 | 0.866 | 1.02 | 1.02 | 0.974 | 0.934 | 0.973 | 0.33 | 0.374 | 0.397 | 0.304 | 0.33 | – | – | – | – | – |
| LC-2-ad | 0.705 | 0.805 | 0.73 | 0.726 | 0.737 | 0.67 | 0.722 | 0.736 | 0.713 | 0.685 | 0.456 | 0.536 | 0.553 | 0.426 | 0.424 | – | 1.14 | 1.01 | – | 0.601 |
| LCLC-97TM1 | 0.727 | 0.703 | 0.702 | 0.633 | 0.829 | 0.889 | 0.734 | 0.756 | 0.804 | 0.766 | 0.16 | 0.183 | – | 0.237 | 0.249 | 0.742 | 0.783 | 0.774 | 0.423 | 0.808 |
| LCLC-103H | 0.774 | 0.826 | 0.8 | 0.783 | 0.883 | 0.767 | 0.801 | 0.808 | 0.75 | 0.759 | 0.588 | 0.632 | 0.692 | 0.604 | 0.616 | 0.947 | 0.994 | 0.894 | 0.789 | 0.996 |
| LK-2 | 0.497 | 0.253 | 0.171 | 0.281 | 0.365 | 0.343 | 0.292 | 0.209 | 0.301 | 0.232 | 0.526 | 0.608 | 0.583 | 0.748 | 0.611 | 0.219 | 0.179 | 0.171 | – | 0.229 |
| LOU-NH91 | 0.845 | 0.871 | 0.999 | 0.917 | 0.945 | 0.966 | 0.765 | 1.01 | 0.875 | 0.939 | 0.498 | 0.526 | 0.556 | 0.524 | 0.483 | 0.322 | 0.261 | 0.308 | 0.315 | 0.296 |
| LU99A | 0.472 | 0.482 | 0.468 | 0.477 | 0.436 | 0.514 | 0.472 | 0.56 | 0.465 | 0.409 | 0.362 | 0.356 | 0.329 | 0.346 | 0.357 | 0.304 | 0.302 | 0.244 | 0.206 | 0.281 |
| LXF-289 | 0.658 | 0.799 | 0.662 | 0.796 | 0.763 | 0.777 | 0.74 | 0.791 | 0.716 | 0.732 | 0.871 | 0.854 | 0.814 | 0.79 | 0.844 | 0.676 | 0.589 | 0.789 | 0.469 | 0.697 |
| NCI-H23 | 0.525 | 0.604 | 0.675 | 0.437 | 0.545 | 0.644 | 0.51 | 0.674 | 0.583 | 0.667 | 0.443 | 0.503 | 0.541 | 0.453 | 0.476 | 0.231 | 0.218 | 0.206 | 0.205 | 0.187 |
| NCI-H522 | 0.87 | 0.959 | 0.859 | 0.799 | 0.907 | 0.919 | 0.909 | 0.863 | 0.855 | 0.702 | – | – | – | – | – | – | 1.16 | 1.26 | 0.993 | 1.11 |
| NCI-H1299 | – | – | – | – | – | – | – | – | – | – | 0.818 | 0.793 | 0.878 | 0.874 | 0.75 | – | – | – | – | – |
| NCI-H1563 | – | – | – | – | – | – | – | – | – | – | 0.634 | 0.629 | 0.635 | 0.655 | 0.626 | 0.489 | 0.549 | 0.47 | 0.467 | 0.539 |
| NCI-H1623 | – | – | – | – | – | – | – | – | – | – | – | – | – | – | – | 0.464 | 0.285 | 0.339 | 0.318 | 0.322 |
| NCI-H1648 | 0.598 | 0.362 | 0.385 | 0.386 | 0.457 | 0.37 | 0.514 | 0.316 | 0.34 | 0.363 | – | – | – | – | – | – | – | – | – | – |
| NCI-H1703 | – | – | – | – | – | – | – | – | – | – | 0.246 | 0.259 | 0.23 | 0.22 | 0.243 | – | – | – | – | – |
| NCI-H1792 | – | – | – | – | – | – | – | – | – | – | 0.3 | 0.281 | 0.238 | 0.337 | 0.288 | 0.323 | 0.666 | 0.284 | 0.219 | 0.271 |
| NCI-H2342 | 0.833 | 0.807 | 0.746 | 0.678 | 0.808 | 0.98 | 0.784 | 0.666 | 0.665 | 0.72 | – | – | – | – | – | 0.653 | 0.665 | 0.699 | 0.773 | 0.71 |
| SW 900 | 0.461 | 0.924 | 0.602 | 0.303 | 0.501 | 0.51 | – | 0.434 | 0.472 | 0.829 | – | – | – | – | – | 0.2 | 0.194 | 0.142 | 0.167 | 0.19 |
